Results from patent publication US20160238590A1, “COMPOSITIONS AND METHODS RELATED TO OAT SENSITIVITY” (IMMUSANT, INC., priority 2013, published 2016).

Columns and labels:
[1] = tested on: PBMC; experiment: IFN-γ ELISpot on PBMC of CD patients after 3-day barley challenge; format: cell-based, human; details: after barley challenge
Text: (§1) Australian Caucasian HLA-DQ2.5^+ and/or HLA-DQ8^+ CD subjects were recruited by advertisement in the Coeliac Society of Victoria newsletter and all had biopsy-proven CD conforming to ESPGHAN criteria. Patients had been on strict gluten free diet for at least 4 weeks prior to commencing grain challenge. Patients underwent 3-day grain challenge with oats, barley, or combined wheat, barley, and rye muffins, and 6 days after commencement, blood was collected. Day 0 responses were not observed in the selection of patients tested, as described previously^8.
(§2) Oats challenge consisted of 100 g dry weight daily of one of three commercial brands of oats: one not tested for wheat contamination (Uncle Toby's; Oats #1), and two shown by R5 ELISA to contain less than 20 ppm wheat gluten (Tilquhilie Pudding; Oats #2 and Freedom Food; Oats #3). Barley challenge consisted of pearl barley (Ward McKenzie) cooked into a risotto (150 g dry weight daily) and the wheat challenge consisted of four 50 g slices of wheat bread daily (Baker's Delight white loaf cut to toasting thickness). The combined wheat, barley, and rye challenge consisted of muffins baked with wheat flour (White Wings), barley flour (Four Leaf Milling), and rye flour (Four Leaf Milling; 22-25 g dry weight each daily). A symptom diary based on a […] Likert scale was completed by participants daily from baseline until day 6.
(§3) Two avenin peptide libraries were utilized for epitope screening. These were designed using avenin sequences from GenBank and a customized algorithm, as previously described^9. The initial library consisted of 199 screening-grade 20 mers including all possible 12 mers (Mimotopes). This library was screened with and without tTG pre-treatment. The second library consisted of additional avenin sequences that were synthesized with glutamate substitution at sites predicted to be deamidated by published algorithms^10, 11 removing the requirement for tTG treatment. This library contained 369 screening-grade 20 mers, including all possible 12 mers (Pepscan). The second round avenin library contained wild-type and deamidated versions of the most immunogenic sequences (25 high quality 16 mers from Mimotopes). High quality peptides containing previously described immunogenic sequences from wheat, barley, and rye were used to test for cross-reactivity^8 (Pepscan). High quality hordein and avenin peptides for TCC testing and biochemical studies were ordered from Pepscan, Mimotopes, or GL Biochem.
(§4) Peripheral blood mononuclear cells (PBMC) were isolated from heparinized whole blood using Ficoll-Paque™ Plus density-gradient centrifugation (GE Healthcare). IFN-γ ELISpot (Mabtech) was set up as previously described^8.

[2] = tested on: PBMC; experiment: IFN-γ ELISpot on PBMC of CD patients on day 6 after 3-day oats challenge; format: cell-based, human; details: for IFN-γ ELISpot response (raw SFU) / significant SFU as a percentage of maximal peptide SFU: after 3-day oats challenge
Text: as §1, §2, §3, §4

EQYQPYPEQQQPFLQQQPLE [avenin library peptide]
IFN-γ ELISpot response (raw SFU) ([1]; Patient 1, peptide 50 μg/ml): 25 SFU
significant SFU as a percentage of maximal peptide SFU ([1]; Patient 1, peptide 50 μg/ml): (^: 5-10%)
IFN-γ ELISpot response (raw SFU) ([1]; Patient 2, peptide 50 μg/ml): 196 SFU
significant SFU as a percentage of maximal peptide SFU ([1]; Patient 2, peptide 50 μg/ml): *** (***: >70%)
IFN-γ ELISpot response (raw SFU) ([1]; Patient 3, peptide 50 μg/ml): 24 SFU
significant SFU as a percentage of maximal peptide SFU ([1]; Patient 3, peptide 50 μg/ml): ^^ (^^: 10-20%)

PSEQYQPYPEQEQPILQQEE [avenin library peptide]
IFN-γ ELISpot response (raw SFU) ([1]; Patient 1, peptide 50 μg/ml): 27 SFU
significant SFU as a percentage of maximal peptide SFU ([1]; Patient 1, peptide 50 μg/ml): (^: 5-10%)
IFN-γ ELISpot response (raw SFU) ([1]; Patient 2, peptide 50 μg/ml): 159 SFU
significant SFU as a percentage of maximal peptide SFU ([1]; Patient 2, peptide 50 μg/ml): *** (***: >70%)
IFN-γ ELISpot response (raw SFU) ([1]; Patient 3, peptide 50 μg/ml): 7 SFU

QYQPYPEQEQPILQQ [partially deamidated avenin peptide]
patients in which the peptide was the most immunogenic ([2]; oats responders after 3-day oats challenge): 5 patients

AQFDPSEQYQPYPEQQQPIL [avenin library peptide]
IFN-γ ELISpot response (raw SFU) ([1]; Patient 1, peptide 50 μg/ml): 35 SFU
significant SFU as a percentage of maximal peptide SFU ([1]; Patient 1, peptide 50 μg/ml): ^^ (^^: 10-20%)
IFN-γ ELISpot response (raw SFU) ([1]; Patient 2, peptide 50 μg/ml): 159 SFU
significant SFU as a percentage of maximal peptide SFU ([1]; Patient 2, peptide 50 μg/ml): *** (***: >70%)
IFN-γ ELISpot response (raw SFU) ([1]; Patient 3, peptide 50 μg/ml): 24 SFU
significant SFU as a percentage of maximal peptide SFU ([1]; Patient 3, peptide 50 μg/ml): ^^ (^^: 10-20%)

EQYQPYPEEQPFMQPL [partially deamidated avenin peptide]
IFN-γ ELISpot response (raw SFU) ([2]; patient P1, peptide 1 μg/ml): 1 SFU
IFN-γ ELISpot response (raw SFU) ([2]; patient P1, peptide 10 μg/ml): 1 SFU
IFN-γ ELISpot response (raw SFU) ([2]; patient P1, peptide 100 μg/ml): 2 SFU
IFN-γ ELISpot response (raw SFU) ([2]; patient P2, peptide 1 μg/ml): 2 SFU
IFN-γ ELISpot response (raw SFU) ([2]; patient P2, peptide 10 μg/ml): 0 SFU
IFN-γ ELISpot response (raw SFU) ([2]; patient P2, peptide 100 μg/ml): 27 SFU
significant SFU as a percentage of maximal peptide SFU ([2]; patient P2, peptide 100 μg/ml): ** (**: 40-70%)
IFN-γ ELISpot response (raw SFU) ([2]; patient P3, peptide 1 μg/ml): 0 SFU
IFN-γ ELISpot response (raw SFU) ([2]; patient P3, peptide 10 μg/ml): 2 SFU
IFN-γ ELISpot response (raw SFU) ([2]; patient P3, peptide 100 μg/ml): 2 SFU
IFN-γ ELISpot response (raw SFU) ([2]; patient P11, peptide 1 μg/ml): 0 SFU
IFN-γ ELISpot response (raw SFU) ([2]; patient P11, peptide 10 μg/ml): 0 SFU
IFN-γ ELISpot response (raw SFU) ([2]; patient P11, peptide 100 μg/ml): 1 SFU
IFN-γ ELISpot response (raw SFU) ([2]; patient P12, peptide 1 μg/ml): 0 SFU
IFN-γ ELISpot response (raw SFU) ([2]; patient P12, peptide 10 μg/ml): 0 SFU
IFN-γ ELISpot response (raw SFU) ([2]; patient P12, peptide 100 μg/ml): 0 SFU
IFN-γ ELISpot response (raw SFU) ([2]; patient P13, peptide 50 μg/ml): 0 SFU

SEQYQPYPEQQEPFVQ [avenin peptide of Genbank Q09097.1, wild-type]
IFN-γ ELISpot response (raw SFU) ([2]; patient P1, peptide 1 μg/ml): 3 SFU
IFN-γ ELISpot response (raw SFU) ([2]; patient P1, peptide 10 μg/ml): 5 SFU
IFN-γ ELISpot response (raw SFU) ([2]; patient P1, peptide 100 μg/ml): 3 SFU
IFN-γ ELISpot response (raw SFU) ([2]; patient P2, peptide 1 μg/ml): 3 SFU
IFN-γ ELISpot response (raw SFU) ([2]; patient P2, peptide 10 μg/ml): 3 SFU
IFN-γ ELISpot response (raw SFU) ([2]; patient P2, peptide 100 μg/ml): 16 SFU
significant SFU as a percentage of maximal peptide SFU ([2]; patient P2, peptide 100 μg/ml): * (*: 20-40%)
IFN-γ ELISpot response (raw SFU) ([2]; patient P3, peptide 1 μg/ml): 8 SFU
IFN-γ ELISpot response (raw SFU) ([2]; patient P3, peptide 10 μg/ml): 9 SFU
IFN-γ ELISpot response (raw SFU) ([2]; patient P3, peptide 100 μg/ml): 4 SFU
IFN-γ ELISpot response (raw SFU) ([2]; patient P11, peptide 1 μg/ml): 0 SFU
IFN-γ ELISpot response (raw SFU) ([2]; patient P11, peptide 10 μg/ml): 0 SFU
IFN-γ ELISpot response (raw SFU) ([2]; patient P11, peptide 100 μg/ml): 0 SFU
IFN-γ ELISpot response (raw SFU) ([2]; patient P12, peptide 1 μg/ml): 1 SFU
IFN-γ ELISpot response (raw SFU) ([2]; patient P12, peptide 10 μg/ml): 3 SFU
IFN-γ ELISpot response (raw SFU) ([2]; patient P12, peptide 100 μg/ml): 0 SFU
IFN-γ ELISpot response (raw SFU) ([2]; patient P13, peptide 50 μg/ml): 9 SFU

SEQYQPYPEQEQPFLQEQPL [avenin library peptide]
IFN-γ ELISpot response (raw SFU) ([1]; Patient 1, peptide 50 μg/ml): 122 SFU
significant SFU as a percentage of maximal peptide SFU ([1]; Patient 1, peptide 50 μg/ml): * (*: 20-40%)
IFN-γ ELISpot response (raw SFU) ([1]; Patient 2, peptide 50 μg/ml): 208 SFU
significant SFU as a percentage of maximal peptide SFU ([1]; Patient 2, peptide 50 μg/ml): *** (***: >70%)
IFN-γ ELISpot response (raw SFU) ([1]; Patient 3, peptide 50 μg/ml): 34 SFU
significant SFU as a percentage of maximal peptide SFU ([1]; Patient 3, peptide 50 μg/ml): * (*: 20-40%)
